Assay results from a melting point compilation (Tetko et al.).

Structure (SMILES)	melting point
O=C1CC[C@@H](COC(c2ccccc2)(c2ccccc2)c2ccccc2)O1	148 to 152 °C
CON(C)C(=O)Nc1ccc(Br)cc1	95 °C
Brc1ccc(-c2ccccn2)s1	87 to 89 °C
Cc1c(Cl)ncnc1Cl	58 °C
Nc1ncnc2c1ncn2C1OC(CO)C(OP(=O)(O)O)C1O (stereo unspecified)	197 °C
c1ccc2c(c1)ccc1nncn12	175 to 177 °C
OC12CC3CC(CC(C3)C1)C2	240 °C
Cc1ccc(/N=N/c2c(N)nn3c(C(F)(F)F)cc(C)nc23)c(C)c1	220 °C
N#Cc1ccc(C=Cc2ccc(C=Cc3ccc(C#N)cc3[N+](=O)[O-])cc2)c([N+](=O)[O-])c1	350 °C
Brc1ccc(C#Cc2ccc(Br)cc2)cc1	182 to 184 °C
O[C@@H]1CCCC/C=C\c2ccccc21	97 °C
CSc1nc(NS(=O)(=O)c2ccc(C)cc2)c(C#N)c(-c2ccccc2)c1Br	212 to 216 °C
O=C(CCCCl)c1ccc(F)cc1	6 °C
COc1ccc2c(c1)c1c3n2CCN(C)C3=NCC1	164 °C
COC(=O)NS(=O)(=O)c1ccc(N)cc1	230 °C
CCCCCCCOc1ccc(N=[N+]([O-])c2ccc(OCCCCCCC)cc2)cc1	73 to 122 °C
O=C(Oc1ccccc1)n1c(C(F)(F)F)nc2cc(Cl)c(Cl)cc21	103 °C
CC1(O)CNC(=O)C1 (stereo unspecified)	140 °C
Clc1c(Cl)c(Cl)c2c(c1Cl)Oc1ccccc1O2	188 °C
c1ccc(Nc2nc(N3CCOCC3)nc(N3CCOCC3)n2)cc1	173 °C
CCCCCCCCC1CCCCC1	-20 °C
Oc1ccnc2ccc(C(F)(F)F)cc12	265 to 268 °C
Clc1cc(Br)ccc1I	35 to 37 °C
CCCSP(=O)(OCC)SCCC	70 °C
O=C1C(Cl)=C(NC(=O)C(Cl)Cl)C(=O)c2ccccc21	212 °C
O=c1cc(-c2ccc(O)cc2)oc2cc(O)cc(O)c12	348 °C

Structure (SMILES)	melting point
CC(C)Nc1nc(N)nc(Cl)n1	133 °C
BrC(=NNc1ccccc1)c1ccccc1	190 °C
O=C=Nc1ccccc1Cl	30.5 °C
Cc1ccc(NC(=O)C(F)(F)C(F)(F)C(F)(F)C(F)(F)C(F)(F)C(F)(F)C(F)(F)C(F)(F)F)c(C)c1	83 °C
CC1OC(OC2C(Oc3cc(O)c4c(c3)OC(c3ccc(O)cc3)CC4=O)OC(CO)C(O)C2O)C(O)C(O)C1O (stereo unspecified)	166 °C
Cc1nc(N)ccc1C#N	155 to 156 °C
CN=C(NC)c1cc(C(C)(C)C)c(O)c(C(C)(C)C)c1	206 °C
CN(C)NC(=O)CCC(=O)O	158 to 162 °C
Clc1cccc2cc3c(Cl)cccc3cc12	189 °C
CC(C(O)c1ccccc1)N(C)C (stereo unspecified)	87.5 °C
FC(Cl)C(F)(F)Cl (stereo unspecified)	-78 °C
Cc1cc(Cl)ncc1[N+](=O)[O-]	36 to 40 °C
O=C(N[C@@H](Cc1cccc(F)c1)C(=O)O)OCC1c2ccccc2-c2ccccc21	156 °C
O=[N+]([O-])c1ccc(/C=N/n2c(S)nnc2C(F)(F)F)cc1	193 °C
N#CC1(O)CN2CCC1CC2 (stereo unspecified)	156 to 159 °C
O=C1OC(OC2OC(=O)C(Cl)=C2Cl)C(Cl)=C1Cl (stereo unspecified)	142 °C
OC(CCN1CCCC1)(c1ccccc1)C1CCCCC1 (stereo unspecified)	86 °C
Clc1cncc(Oc2ccc(Cl)nn2)c1	112 to 114 °C
NC(=O)c1ccccc1N1CCCCC1	115 to 118 °C
Cc1ccc(N=C(Nc2ccc(C)cc2)c2cc(C(C)(C)C)c(O)c(C(C)(C)C)c2)cc1	207 °C
NS(=O)(=O)c1ccc(S(=O)(=O)CCO)cc1	165 °C
O=c1[nH]cc(C(F)(F)F)c(=O)[nH]1	316 °C
OCc1cc(Cl)cc(Cl)c1O	82 to 83 °C
CNCc1sc(-c2ccccc2)nc1-c1ccccc1	87 to 88 °C
CC(=O)C1(O)CCC2C3C=C(C)C4=CC(=O)CCC4(C)C3CCC21C (stereo unspecified)	219 °C
O=C(Cc1ccccc1)C(Cc1ccccc1)=NNc1ccccc1	137 °C

Structure (SMILES)	melting point
COP(=O)(OC)c1ccccc1P(=O)(OC)OC	81 °C
NNc1c2ccccc2nc2ccccc12	177 °C
Clc1ccc2nc(Cl)c(Cl)nc2c1	143 to 148 °C
COc1ccccc1-c1nnc2n1NC(c1ccc([N+](=O)[O-])cc1)S2 (stereo unspecified)	196 °C
Cc1csc2ncnc(Cl)c12	137 to 138 °C
C#CC1(O)CCC2C3CCc4cc(OC)ccc4C3CCC21C (stereo unspecified)	150 °C
O=[N+]([O-])c1ccc(C(Cl)=Cc2ccc(C=C(Cl)c3ccc([N+](=O)[O-])cc3[N+](=O)[O-])cc2)c([N+](=O)[O-])c1	245 °C
O=C(C1=NOC2C(=O)N(c3ccccc3)C(=O)C12)c1ccccc1 (stereo unspecified)	161 °C
COc1cc2ccc(N(C)S(=O)(=O)c3ccc(C)cc3)cc2[nH]1	203 °C
N#Cc1ccncc1Cl	72.5 °C
C1=CCC=C1	-85 °C
O=C(O)C(Cl)(Cl)CCl	65.5 °C
C/C(=N\Nc1ccccc1)c1nc2c(ccc3ccccc32)nc1C	209 °C
NC(=O)c1cccc(CCl)c1	125 to 127 °C
O=[N+]([O-])c1cc(C2CCCCC2)c(O)c([N+](=O)[O-])c1	107 °C
O=Cc1ccc2[nH]ccc2c1	98 °C
Cc1ccc([N+](=O)[O-])c(N)n1	146 to 150 °C
CN(C)c1nc(=O)n(C2CCCCC2)c(=O)n1C	116 °C
Cn1c(S)nnc1-c1ccccc1	188 °C
OCC1OC(OC2OC(CO)C(O)C(O)C2O)C(O)C(O)C1O (stereo unspecified)	203 °C
COc1ccc(-c2nnc3n2NC(c2ccc(N(C)C)cc2)S3)cc1 (stereo unspecified)	167 °C
O=S(=O)(c1ccc(Cl)cc1)C(F)(F)C(F)Cl (stereo unspecified)	55 to 57 °C
O=Cc1cccc(Br)c1	20 °C
CC1(C)c2ccccc2N(Cc2ccccc2)C12C=Cc1cc([N+](=O)[O-])ccc1O2 (stereo unspecified)	158 to 160 °C
Cc1cc(Cl)c([N+](=O)[O-])cc1[N+](=O)[O-]	90 °C

Now from value to compound:

melting point	Structure (SMILES)
78 °C	Cc1ccc(-c2ccc(/C=C3\C=C(CC(C)C)OC3=O)o2)cc1
62 to 64 °C	CC(=O)c1ccc2c(c1)CCO2
-80 °C	C=COC(=O)CC
182 to 185 °C	COc1cc2c(cc1O)C(C)=NCC2
163 °C	Cc1cc(C)n(-c2ccc(C(=O)O)cc2)n1
223 to 224 °C	CS(=O)(=O)c1cc(Cl)c(O)c(Cl)c1
45.5 to 48 °C	CC(=O)c1csc(-c2ccc(OC(F)(F)F)cc2)n1
225 to 227 °C	CC(C)[C@@H](O)[C@H](N)C(=O)O
75 to 77 °C	Cc1cc(C(=O)CC#N)c(C(F)(F)F)o1
48 to 49 °C	Cc1cccc(CS(=O)(=O)Cl)c1
107 to 108 °C	CC(=O)CCc1oc2c(Br)cc(Br)cc2c1-c1ccc(C)o1
-65 °C	COCCCN
34 °C	CC(=O)c1ccc(N=C=O)cc1
34 °C	CCCCCCCCCCCC(=O)CC
103 to 105 °C	CCOC(=O)C(C#N)=C(SC)Sc1ncccn1
136 to 137 °C	O=C(Oc1c(F)c(F)c(F)c(F)c1F)c1csc(-c2cccnc2)n1
172 °C	CCOC(=O)c1nn(-c2ccc(C)cc2)c(C)c1C(=O)c1noc(-c2ccc3ccccc3c2)c1S(=O)(=O)c1ccccc1
119 °C	CC(=O)OCC(OC(C)=O)C(OC(C)=O)C(OC(C)=O)C(OC(C)=O)C(OC(C)=O)OC(C)=O (stereo unspecified)
148 °C	O=C(O)COc1c(Cl)ccc(Cl)c1Cl
144 °C	CCOc1ccc2ccccc2c1C(=O)O
-13.8 °C	CC(=O)OCCBr
157 to 160 °C	Nc1c(C(=O)O)cccc1C(F)(F)F
53 °C	COC(=O)c1ccc2c(c1)OCO2
223 °C	O=Cc1cc(O)c(O)cc1O
206 °C	CCOC(=O)NC(=S)Nc1sc2c(c1C(=O)OCC)CCN(Cc1ccccc1)C2

melting point	Structure (SMILES)
173 to 175 °C	NNC(=O)c1ccc(Br)cc1Cl
-74.3 °C	C=C(C)C1CC=C(C)CC1 (stereo unspecified)
2 °C	O=[N+]([O-])c1ccccc1CCO
170 to 174 °C	COC(=O)c1ccc(C(=O)CC#N)cc1
97 °C	CCC(C=O)(CC)CCC#N
178 to 179 °C	CCOc1nc2ccccc2c(=O)[nH]1
155 °C	CCC(Cc1c(I)cc(I)c(N)c1I)C(=O)O (stereo unspecified)
167 °C	Cc1cc(C(=O)O)ccc1F
137 °C	CC(NC(=O)C(C(F)(F)F)C(F)(F)F)c1ccccc1 (stereo unspecified)
110 °C	O=C(O)Cc1csc2ccccc12
94 °C	CSc1ncccc1C(=O)Cl
72 to 73 °C	COc1ccc2c(c1C)CC2=O
107 to 109 °C	O=C(OC(=O)C(=Cc1ccccc1)Cc1ccccc1)C(=Cc1ccccc1)Cc1ccccc1
36 °C	COc1ccc(C(F)(F)F)cc1CBr
131 °C	COc1c(Cl)cc([N+](=O)[O-])c(OC)c1C(=O)O
73.5 °C	O=C(OCCOC(=O)c1ccccc1)c1ccccc1
156 to 158 °C	O=C(O)[C@@H]1CSCN1C(=O)OCC1c2ccccc2-c2ccccc21
89 to 91 °C	CC(C)(C)OC(=O)N1CCC(C(=O)c2ccc(F)cc2)CC1
84 °C	CC(C)OC(=O)C(C)N(C(=O)c1ccccc1)c1ccc(F)c(Cl)c1 (stereo unspecified)
144 °C	O=C1c2ccccc2C(=O)N1CO
219 °C	NC(=O)CN(CC(=O)O)CC(=O)O
260 °C	NCCC(=O)N[C@@H](Cc1c[nH]cn1)C(=O)O
109 to 114 °C	Cc1ccc(C2(C(=O)O)CC2)cc1
192 °C	Cc1cc(C)c(N)c(C(=O)O)c1
